# Data: patent US20230235358A1, “HOST DEFENSE SUPPRESSING METHODS AND COMPOSITIONS FOR MODULATING A GENOME” (FLAGSHIP PIONEERING INNOVATIONS VI, LLC, priority 2020, published 2023)
# How the values were obtained:
# [1] = test system: primary human dermal fibroblasts; assay: Cytotoxicity (PrestoBlue) three days post transfection, Example 3; format: cell-based; details: addition of BAY11
# Method: (§1) In this example, primary human dermal fibroblasts (ATCC PCS-201-012) are cultured according to ATCC instructions. Cells are nucleofected (Lonza Nucleofector®) with the following samples: • 1. mRNA encoding Gene Writer polypeptide targeting AAVS1+Gene Writer RNA template carrying a GFP reporter gene • 2. Condition (1) with genetically inactivated Gene Writer polypeptide • 3. Condition (1)+BAY 11-7082 • 4. Condition (1)+BAY 11-7082+IFN-beta
# (§2) Gene Writing efficiency is measured from cultured cells 3 days after transfection by flow cytometry to assay the percentage of cells expressing GFP or by digital droplet PCR analysis with primers and probe on the junction between the template sequence and the targeted locus and on reference sequences as previously described (see PCT/US2019/048607). […] In some embodiments, the addition of BAY11 will increase one or both of the expression of the Gene Writer polypeptide, and the stability of the RNA template. In some embodiments, the addition of […] will also reduce cytotoxicity, e.g., cytotoxicity that is due to intracellular immune pathways.
# [2] = test system: primary human dermal fibroblasts; assay: Gene Writing efficiency (GFP flow cytometry / ddPCR) with BAY 11-7082; format: cell-based; details: addition of BAY11
# Method: as §1, §2
# [3] = test system: human skin cells; details: cited from earlier work
# [4] = test system: mouse liver; assay: LNP-mediated delivery of firefly luciferase mRNA to the mouse liver (luciferase activity of liver homogenate); format: in vivo; details: C57BL/6 mice, i.v. 1 mg/kg, 6, 24, 48 hours, FIG. 2
# Method: To measure the effectiveness of LNP-mediated delivery of firefly luciferase containing particles to the liver, LNPs were formulated and characterized as described in Example 9 and tested in vitro prior (Example 10) to administration to mice. C57BL/6 male mice (Charles River Labs) at approximately 8 weeks of age were dosed with LNPs via intravenous (i.v.) route at 1 mg/kg. Vehicle control animals were dosed i.v. with 300 μL phosphate buffered saline. Mice were injected via intraperitoneal route with dexamethasone at 5 mg/kg 30 minutes prior to injection of LNPs. Tissues were collected at necropsy at or 6, 24, 48 hours after LNP administration with a group size of 5 mice per time point. Liver and other tissue samples were collected, snap-frozen in liquid nitrogen, and stored at −80° C. until analysis.
# Frozen liver samples were pulverized on dry ice and transferred to homogenization tubes containing lysing matrix D beads (MP Biomedical). Ice-cold 1×luciferase cell culture lysis reagent (CCLR) (Promega) was added to each tube and the samples were homogenized in a Fast Prep-24 5G Homogenizer (MP Biomedical) at 6 m/s for 40 seconds. The samples were transferred to a clean microcentrifuge tube and clarified by centrifugation. Prior to luciferase activity assay, the protein concentration of liver homogenates was determined for each sample using the Pierce™ BCA Protein Assay Kit (ThermoFisher Scientific) according to the manufacturer's instructions. Luciferase activity was measured with 200 μg (total protein) of liver homogenate using the luciferase assay reagent (Promega) according to manufacturer's instructions using an i3X SpectraMax plate reader (Molecular Devices). […] Reporter activity by the various formulations followed the ranking LIPIDV005>LIPIDV004>LIPIDV003. RNA expression was transient and enzyme levels returned near vehicle background by 48 hours. Post-administration. This assay validated the use of these ionizable lipids and their respective formulations for RNA systems for delivery to the liver.
SMILES,Cytotoxicity due to intracellular immune pathways [1],Expression of the Gene Writer polypeptide and/or stability of the RNA template [2],Expression of OCT4 from synthetic mRNA [3],"Reporter (luciferase) activity in liver, ranking of formulations [4]"
"Cc1ccc(S(=O)(=O)/C=C/C#N)cc1 [BAY11, BAY 11-7082]",reduce,increase,improve,
CCCCCCCCCOC(=O)CCCCCCCN(CCO)CCCCCCCC(=O)OC(CCCCCCCC)CCCCCCCC [LIPIDV004],,,,LIPIDV005>LIPIDV004>LIPIDV003
CCCCCCCC(=O)N(CCCN(C)C)C(CCCCCCCCC(=O)OC(CCCCCC)CCCCCC)CCCCCCCCC(=O)OC(CCCCCC)CCCCCC [LIPIDV005],,,,LIPIDV005>LIPIDV004>LIPIDV003
CCCCC/C=C\C/C=C\CCCCCCCC(=O)OCC(COC(=O)CCC(OCCCCCCCC)OCCCCCCCC)COC(=O)OCCCN(CC)CC (stereo not drawn) [LIPIDV003],,,,LIPIDV005>LIPIDV004>LIPIDV003
